Results reported in ChEMBL document CHEMBL3351683, “Synthesis of lantadene analogs with marked in vitro inhibition of lung adenocarcinoma and TNF-α induced nuclear factor-kappa B (NF-κB) activation” (Bioorg Med Chem Lett, 2014).
Blank lines part the entries; values can stand above or below the compound they belong to. The source made the active and inactive calls. No cut-off for these calls is given here.

Tests used:
[1] = target: T1, Inhibitor of nuclear factor kappa-B kinase subunit beta (Homo sapiens, UniProt O14920); test: Inhibition of phosphorylation of human recombinant Flag-tagged IKKbeta expressed in Sf21 cells after 1 hr by Kinase-Glo luminescent kinase assay
T1 sequence (O14920 whole entry): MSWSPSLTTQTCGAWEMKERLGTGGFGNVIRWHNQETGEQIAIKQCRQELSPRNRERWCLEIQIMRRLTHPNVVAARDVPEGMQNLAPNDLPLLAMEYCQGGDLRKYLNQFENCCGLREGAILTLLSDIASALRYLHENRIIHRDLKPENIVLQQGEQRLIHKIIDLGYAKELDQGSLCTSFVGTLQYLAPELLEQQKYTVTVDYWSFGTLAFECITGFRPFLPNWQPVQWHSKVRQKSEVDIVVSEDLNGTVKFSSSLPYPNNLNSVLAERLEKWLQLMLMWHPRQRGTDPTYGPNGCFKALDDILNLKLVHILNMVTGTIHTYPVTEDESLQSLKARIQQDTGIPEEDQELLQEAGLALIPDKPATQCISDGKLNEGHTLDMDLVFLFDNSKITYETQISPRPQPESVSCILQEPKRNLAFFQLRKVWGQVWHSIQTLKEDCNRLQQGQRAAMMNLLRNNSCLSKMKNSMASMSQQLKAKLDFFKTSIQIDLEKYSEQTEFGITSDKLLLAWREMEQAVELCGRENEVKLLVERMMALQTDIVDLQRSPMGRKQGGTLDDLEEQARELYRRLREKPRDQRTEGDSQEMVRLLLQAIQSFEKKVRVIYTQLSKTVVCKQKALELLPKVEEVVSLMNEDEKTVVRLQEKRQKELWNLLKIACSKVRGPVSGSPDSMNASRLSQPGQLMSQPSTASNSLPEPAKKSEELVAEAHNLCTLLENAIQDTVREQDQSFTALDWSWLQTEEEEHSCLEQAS

A549 = test: Cytotoxicity against human A549 cells after 48 hrs by MTT assay; assay type: functional, cell-based; conditions: A549, 48 h
[2] = Stability in simulated gastric fluid at pH 2 assessed as compound remaining measured at 5 mg/ml at 2 hrs by HPLC analysis; assay type: ADME; conditions: read-out: Stability
[3] = Stability in simulated gastric fluid at pH 2 assessed as compound remaining measured at 5 mg/ml at 5 hrs by HPLC analysis; assay type: ADME; conditions: read-out: Stability
[4] = Stability in simulated gastric fluid at pH 2 assessed as compound remaining measured at 5 mg/ml at 8 hrs by HPLC analysis; assay type: ADME; conditions: read-out: Stability
[5] = Stability in simulated gastric fluid at pH 2 assessed as compound remaining measured at 5 mg/ml at 12 hrs by HPLC analysis; assay type: ADME; conditions: read-out: Stability
[6] = Metabolic stability in 80% human plasma assessed as compound remaining at 5 mg/ml at 15 mins by HPLC analysis; assay type: ADME, cell-free; conditions: read-out: Stability
[7] = Metabolic stability in 80% human plasma assessed as compound remaining at 5 mg/ml at 30 mins by HPLC analysis; assay type: ADME, cell-free; conditions: read-out: Stability
[8] = Metabolic stability in 80% human plasma assessed as compound remaining at 5 mg/ml at 60 mins by HPLC analysis; assay type: ADME, cell-free; conditions: read-out: Stability
[9] = Metabolic stability in 80% human plasma assessed as compound remaining at 5 mg/ml at 120 mins by HPLC analysis; assay type: ADME, cell-free; conditions: read-out: Stability
[10] = target: T2, Inhibitor of nuclear factor kappa-B kinase subunit beta (Homo sapiens) (UniProt O14920); conditions: A549, 0.5 to 1 uM
T2 sequence (whole entry): T1 sequence (O14920 whole entry)
Description: Inhibition of TNFalpha-induced IKKbeta-mediated IkappaB degradation in human A549 cells compound treated for 8 hrs at 0.5 to 1 uM followed by TNFalpha stimulation measured after 30 mins by Western blot analysis relative to control

- IC50 [1]: 1360 nM
- remaining at 2 h, 5 mg/ml [2]: 93%
- remaining at 5 h, 5 mg/ml [3]: 88.2%
- remaining at 8 h, 5 mg/ml [4]: 83.3%
- remaining at 12 h, 5 mg/ml [5]: 77.2%
- remaining at 0.25 h, 5 mg/ml [6]: 70.4%
- remaining at 0.5 h, 5 mg/ml [7]: 53.2%
- remaining at 1 h, 5 mg/ml [8]: 46.7%
- remaining at 2 h, 5 mg/ml [9]: 35.3%
- inhibition [10]: Active
SMILES: COc1cccc(C(=O)O[C@H]2CC[C@]3(C)[C@H]4CC=C5[C@@H]6CC(C)(C)C[C@@H](OC(=O)C=C(C)C)[C@]6(C(=O)O)CC[C@@]5(C)[C@]4(C)CC[C@H]3C2(C)C)c1
- IC50 (A549): 980 nM

SMILES: CC(C)=CC(=O)O[C@@H]1CC(C)(C)C[C@H]2C3=CC[C@@H]4[C@@]5(C)CC[C@H](OC(=O)c6cccc(F)c6)C(C)(C)[C@@H]5CC[C@@]4(C)[C@]3(C)CC[C@@]12C(=O)O
- IC50 (A549): 6860 nM

SMILES: CC(C)=CC(=O)O[C@@H]1CC(C)(C)C[C@H]2C3=CC[C@@H]4[C@@]5(C)CCC(=O)C(C)(C)[C@@H]5CC[C@@]4(C)[C@]3(C)CC[C@@]12C(=O)O
- IC50 (A549): 1190 nM

SMILES: C/C=C(/C)C(=O)O[C@@H]1CC(C)(C)C[C@H]2C3=CC[C@@H]4[C@@]5(C)CC[C@H](OC(=O)c6cccc(OC)c6)C(C)(C)[C@@H]5CC[C@@]4(C)[C@]3(C)CC[C@@]12C(=O)O
- IC50 (A549): 1840 nM

SMILES: C/C=C(/C)C(=O)O[C@@H]1CC(C)(C)C[C@H]2C3=CC[C@@H]4[C@@]5(C)CC[C@H](OC(=O)c6ccccc6F)C(C)(C)[C@@H]5CC[C@@]4(C)[C@]3(C)CC[C@@]12C(=O)O
- IC50 (A549): 2040 nM

SMILES: CCCC(=O)O[C@H]1CC[C@]2(C)[C@H]3CC=C4[C@@H]5CC(C)(C)C[C@@H](OC(=O)C=C(C)C)[C@]5(C(=O)O)CC[C@@]4(C)[C@]3(C)CC[C@H]2C1(C)C
- IC50 (A549): > 10000 nM

SMILES: CC(C)=CC(=O)O[C@@H]1CC(C)(C)C[C@H]2C3=CC[C@@H]4[C@@]5(C)CC[C@H](OC(=O)c6ccccc6F)C(C)(C)[C@@H]5CC[C@@]4(C)[C@]3(C)CC[C@@]12C(=O)O
- IC50 (A549): 1960 nM

SMILES: CC(C)C(=O)O[C@@H]1CC(C)(C)C[C@H]2C3=CC[C@@H]4[C@@]5(C)CCC(=O)C(C)(C)[C@@H]5CC[C@@]4(C)[C@]3(C)CC[C@@]12C(=O)O
- IC50 (A549): > 10000 nM

SMILES: C/C=C(/C)C(=O)O[C@@H]1CC(C)(C)C[C@H]2C3=CC[C@@H]4[C@@]5(C)CC[C@H](OC(=O)c6cccc(F)c6)C(C)(C)[C@@H]5CC[C@@]4(C)[C@]3(C)CC[C@@]12C(=O)O
- IC50 (A549): > 10000 nM

SMILES: C/C=C(/C)C(=O)O[C@@H]1CC(C)(C)C[C@H]2C3=CC[C@@H]4[C@@]5(C)CC[C@H](OC(=O)C(C)C)C(C)(C)[C@@H]5CC[C@@]4(C)[C@]3(C)CC[C@@]12C(=O)O
- IC50 (A549): > 10000 nM

SMILES: CC(C)=CC(=O)O[C@@H]1CC(C)(C)C[C@H]2C3=CC[C@@H]4[C@@]5(C)CC[C@H](OC(=O)C(C)C)C(C)(C)[C@@H]5CC[C@@]4(C)[C@]3(C)CC[C@@]12C(=O)O
- IC50 (A549): 2560 nM

SMILES: CC(C)=CC(=O)O[C@@H]1CC(C)(C)C[C@H]2C3=CC[C@@H]4[C@@]5(C)CC[C@H](O)C(C)(C)[C@@H]5CC[C@@]4(C)[C@]3(C)CC[C@@]12C(=O)O [Reduced Lantadene B]
- IC50 ([1]; sf21): 4240 nM
- IC50 (A549): 430 nM

- IC50 [1]: 1540 nM
- remaining at 2 h, 5 mg/ml [2]: 92.2%
- remaining at 5 h, 5 mg/ml [3]: 86.5%
- remaining at 8 h, 5 mg/ml [4]: 80.3%
- remaining at 12 h, 5 mg/ml [5]: 72.8%
- remaining at 0.25 h, 5 mg/ml [6]: 70.2%
- remaining at 0.5 h, 5 mg/ml [7]: 52.2%
- remaining at 1 h, 5 mg/ml [8]: 44.3%
- remaining at 2 h, 5 mg/ml [9]: 32.3%
SMILES: CC(C)=CC(=O)O[C@@H]1CC(C)(C)C[C@H]2C3=CC[C@@H]4[C@@]5(C)CC[C@H](OC(=O)c6ccc(Cl)cc6)C(C)(C)[C@@H]5CC[C@@]4(C)[C@]3(C)CC[C@@]12C(=O)O
- IC50 (A549): 1120 nM

SMILES: C/C=C(/C)C(=O)O[C@@H]1CC(C)(C)C[C@H]2C3=CC[C@@H]4[C@@]5(C)CC[C@H](OC(=O)CCC)C(C)(C)[C@@H]5CC[C@@]4(C)[C@]3(C)CC[C@@]12C(=O)O
- IC50 (A549): > 10000 nM

SMILES: C/C=C(/C)C(=O)O[C@@H]1CC(C)(C)C[C@H]2C3=CC[C@@H]4[C@@]5(C)CC[C@H](OC(=O)c6ccc(Cl)cc6)C(C)(C)[C@@H]5CC[C@@]4(C)[C@]3(C)CC[C@@]12C(=O)O
- IC50 (A549): 1320 nM

SMILES: CC1(C)C[C@@H](O)[C@]2(C(=O)O)CC[C@]3(C)C(=CC[C@@H]4[C@@]5(C)CCC(=O)C(C)(C)[C@@H]5CC[C@]43C)[C@@H]2C1
- IC50 (A549): > 10000 nM

SMILES: C/C=C(/C)C(=O)O[C@@H]1CC(C)(C)C[C@H]2C3=CC[C@@H]4[C@@]5(C)CCC(=O)C(C)(C)[C@@H]5CC[C@@]4(C)[C@]3(C)CC[C@@]12C(=O)O [LANTADENE A]
- IC50 (A549): 2840 nM

SMILES: CCCC(=O)O[C@@H]1CC(C)(C)C[C@H]2C3=CC[C@@H]4[C@@]5(C)CCC(=O)C(C)(C)[C@@H]5CC[C@@]4(C)[C@]3(C)CC[C@@]12C(=O)O
- IC50 (A549): > 10000 nM

SMILES: C/C=C(/C)C(=O)O[C@@H]1CC(C)(C)C[C@H]2C3=CC[C@@H]4[C@@]5(C)CC[C@H](O)C(C)(C)[C@@H]5CC[C@@]4(C)[C@]3(C)CC[C@@]12C(=O)O [Reduced Lantadene A]
- IC50 [1]: 2620 nM
- IC50 (A549): 790 nM
